A value given as a limit tells only on which side of the number the result lay.

The melting point is the temperature of the solid-liquid transition. Molecule `COc1cccc(CN[C@H](C)c2ccc([N+](=O)[O-])cc2)c1O` came in with a melting point of 112 to 114 °C.
As to `CCCc1nn(-c2ccc(C(F)(F)F)cn2)cc1C=O`, the melting point lay within 52 to 53 °C.
In turn, `CCSc1cc(C#N)c(Oc2ccc(Cl)c(Cl)c2)cn1` returned a melting point of 79 to 81 °C.
With `CNc1cc2c(cn1)c(=O)n1nccc1n2C`, the melting point was more than 300 °C.
The result for `CCOP(=O)(CC(Nc1cccnc1)c1cc(C)c(O)c(OC)c1)OCC` (configuration not stated) reads 156 to 158 °C.
For `CC1Cc2cc(-n3ccnc3)ccc2C1=O` (configuration not stated), the melting point lay within 103 to 106 °C.
With `Nc1nc(O)c2c(n1)NC[C@H](CCc1ccc(Br)cc1)C2`, the melting point is 275 to 283 °C.
Turning to `CCOC(=O)c1cc(Cl)c(F)c(Cl)c1`, the melting point was in the range of 59.5 to 60 °C.
In turn, `CCCn1nc2c(N)nc3ccccc3c2c1CC(C)(C)O` yielded a melting point of 188 to 190 °C.
In the case of `O=C(Nc1nc(-c2ccco2)c(C(=O)c2ccccn2)s1)c1ccncc1`, the melting point was in the range of 218 to 227 °C.
For the molecule `CC(C(=O)c1ccc(OCc2ccccc2)c(OCc2ccccc2)c1)N1CCC(n2c(=O)[nH]c3ccccc32)CC1` (configuration not stated), the melting point was in the range of 87 to 90 °C.
Regarding `CC(C)(C)OC(=O)N(C[C@H](O)COc1ccc(OCc2ccccc2)cc1)C1CN(C(c2ccccc2)c2ccccc2)C1`, the melting point was 95 to 96 °C.
Next, `COC(=O)c1cc2c3ccccc3n(C)c2s1`: 134 °C; `CCOC(=O)C=Cc1cn(CCCC2(C)OCCO2)c2ccccc12`: 61 to 62 °C.
Molecule `O=c1[nH]c2cc(F)c(O)c([N+](=O)[O-])c2[nH]c1=O` gave a melting point of more than 360 °C.
Turning to `CC1(C)CC2(CC(C)(C)N1)NC(C)(CO)CO2` (configuration not stated), the melting point lay within 90 to 92 °C.
In turn, `Cn1ncc(C(=O)c2ccc(S(C)(=O)=O)c(C3=NC(C)(C)CO3)c2Cl)c1O` came in with a melting point of 132 to 135 °C.
In the case of `CC(C)(C)NC(=O)[C@@H]1[C@@H](OC(=O)c2ccccc2)CCN1C(=O)OC(C)(C)C`, the melting point was in the range of 132 to 134 °C.
In turn, `Cc1cc(=O)n(-c2cccc(Cl)c2)n1C` registered a melting point of 98 to 100 °C.
`COc1ccc(-n2ncc(-c3ccc(S(C)(=O)=O)cc3)c(-c3ccc(F)cc3)c2=O)cc1F`: the melting point lay in the range of 97 to 101 °C.
For the molecule `COc1ccc(-n2c(=O)c(C)nc3ccccc32)cc1`, the melting point lay in the range of 230 to 232 °C.
Next, `CC(=O)OCC1CCCn2c(c(C3=C(c4cn(C)c5ccccc45)C(=O)OC3=O)c3ccccc32)C1` (configuration not stated): 164 to 166 °C; `CCCCCCCCN(C=O)C1CC(C)(C)N(C=CC(=O)OCC)C(C)(C)C1`: 58 to 60 °C.
Molecule `COC=C(C(=O)OC)c1c(OC)ncnc1Oc1cccc(C)c1` gave a melting point of 107 °C.
On to `COc1ccc(/C=C/C(=O)/C=C/C(=O)O)c(OC)c1`, for which the melting point was in the range of 195 to 200 °C.
`NC(=O)NNc1c(Cl)cccc1Cl` registered a melting point of 288 to 290 °C.
Molecule `CC1CC(=O)c2c(OS(=O)(=O)c3cccs3)ccc(Br)c2C1` (configuration not stated) registered a melting point of 110 to 113 °C.
Take `O=C(NCC1CCCCC1)c1c(Cl)ccc2nc(N3CCC[C@@H]3C(=O)O)ccc12`: the melting point lay in the range of 157 to 160 °C.
For `CNc1cc(OC)c(C(=O)NC2CCN(Cc3ccccc3)C2)cc1Cl` (configuration not stated), the melting point lay within 101 to 102 °C.
For `CCc1nc2c(N)nc3ccccc3c2n1CCCCS(=O)(=O)NC`, the melting point is 190 to 191 °C.
As for `[N-]=[N+]=Nc1ccc(-c2ccc(-c3nc(N)nc(N)n3)cc2)cc1`, the melting point was found to be 230 °C.
`CSC(=O)c1ccccc1NC1CCN(C)CC1` showed a melting point of 64 to 65 °C.
`CCCc1c(OC(C(=O)O)c2ccc(OC)cc2)ccc(C(C)=O)c1O` (configuration not stated) had a melting point of 154 to 156 °C.
Next, `CCCCCCCCCCCCCCCCCC(=O)NCCOCCn1c(CCOC)nc2c(N)nc3ccccc3c21`: 80 to 83 °C; `CC(=O)NCCc1cnn2ccc3c(c12)CCO3`: 174 to 175 °C; `CC(C)OC(=O)c1cc(-n2c(N)c(C#N)cnc2=O)c(F)cc1Cl`: 212 to 213 °C.
Next, `Cc1cc(C)cc(C(=O)N2CCN(C(=O)CNC3CCN(Cc4ccc(-c5ccccc5)cc4)CC3)C(c3ccc(Cl)c(Cl)c3)C2)c1` (racemic): 87 to 89 °C; `C=CS(=O)(=O)C(C(=O)NC)S(=O)(=O)C=C`: 143 to 147 °C.
Molecule `CCOC(=O)/C=C/C=C/c1cc2cc(N(C)C)ccc2s1` showed a melting point of 140 to 142 °C.
The result for `COC1CSC2=C(SC1)C(OC(=O)Oc1ccccc1)N(c1ccc(Cl)cn1)C2=O` (configuration not stated) reads 167 °C; that for `C=CC(C)(O)CN1CCC2(CC1)CSC1=C(O2)c2ccccc2C(=O)C1=O` (configuration not stated), 74 to 77 °C.
Next, `ICCC(c1ccccc1)c1ccccc1`: 51 to 55 °C; `CN1Cc2c(C=NO)ncn2-c2ccc(F)cc2C1=O`: 247 to 250 °C.
Turning to `Nc1cnn2cnc3ccccc3c12`, the melting point was 168 to 170 °C.
In turn, `Cc1ccc(C(C)(CCCCC(=O)CCCCC(C)(C(=O)O)c2ccc(C)cc2)C(=O)O)cc1` (configuration not stated) gave a melting point of 48 to 50 °C.
For `Clc1ccc2nc(-c3ccccc3)cc(Cl)c2c1`, the melting point was 114 to 116 °C.
As for `CC(=O)Nc1ccc(S(=O)(=O)c2cccc(Cl)c2)cc1`, the melting point lay in the range of 149 to 150 °C.
In the case of `Cc1cc2c(c(C)c1NC(=O)CC(C)(C)C)C(=O)C(C)(C)O2`, the melting point lay within 181 to 182 °C.
Next, `CCOC(=O)c1sc2cc(OCc3cccnc3)ccc2c1Sc1ccccc1`: 94 to 95 °C; `Nc1ccc(C2CCSCC2)c(F)c1`: 96 to 98 °C.
Turning to `CC(C)(C)OC(=O)NNC(=O)c1ncc(OCc2ccccc2)c(OCc2ccccc2)c1CCl`, the melting point lay in the range of 170 to 171 °C.
In turn, `COC(=O)c1ncoc1-c1ccc([N+](=O)[O-])cc1Cl` returned a melting point of 121 to 122 °C.
Regarding `COc1cc2c(cc1OC)CC(NC(=O)N(C)O)C2`, the melting point was 165 to 166 °C.
The molecule `O=C(c1ccccc1)c1ccc(OCCO)cc1O` had a melting point of 92 to 94 °C.
As for `O=C1N(Cc2cccc(OCc3ccccc3)c2)c2ccccc2C12COc1cc3c(cc12)CCO3` (configuration not stated), the melting point fell in the range of 66 to 68 °C.
Take `COc1cn(-c2ccc(OCc3ccccc3)cc2F)nc(-c2ccnn2-c2ccccc2)c1=O`: the melting point is 181 to 183 °C.
Next, `CCOC(=O)C(=NOC)c1noc(N)n1`: 143 to 146 °C.
Turning to `CCCN(C)S(=O)(=O)c1cc(-n2c(=O)cc(C(F)(F)F)n(C)c2=O)ccc1Cl`, the melting point lay within 144 to 145 °C.
Molecule `Clc1cc(Cl)c(-n2nccc2Cl)c(Cl)c1` came in with a melting point of 96 °C.
Molecule `CC1(C)SC2C(NC(=O)CNC(=O)NC(=N)Cc3ccc(Cl)cc3)C(=O)N2C1c1nnn[nH]1` (configuration not stated) showed a melting point of 150 to 162 °C.
For the molecule `COc1ccccc1N=Nc1ncc[nH]1`, the melting point was in the range of 152 to 153 °C.
Next, `COc1cccc(C(=O)N2CCc3cc(O)c(OC)cc3C2=O)c1`: 198 to 199 °C.
Molecule `CCN1CCN(c2ccc(C(=O)OC)cc2)CC1` returned a melting point of 102 to 104 °C.
`CC1=NN=C(c2cccc(N)c2)c2cc3c(cc2C1)OCO3` came in with a melting point of 190 to 191 °C.
Consider `c1ccc(-c2ccc(Nc3nnc(Cc4ccncc4)c4ccccc34)cc2)cc1`, for which the melting point was 189 to 191 °C.
Take `NC(=O)N1C(=O)C(C(=O)c2ccco2)c2nc(Cl)ccc21` (configuration not stated): the melting point lay in the range of 248 to 260 °C.
Turning to `COc1ccc(NC(=O)C=NO)cc1C`, the melting point lay within 163 to 165 °C.
In the case of `O=C(O)c1cccnc1-c1ccc2[nH]nc(Nc3nccs3)c2c1`, the melting point was 267 to 268 °C.
In turn, `Cc1ncc2n1-c1ccc(Cl)cc1C(c1ccccc1F)NC2` (configuration not stated) gave a melting point of 200 to 203 °C.
With `CN(Cc1ccncc1)c1ccc([N+](=O)[O-])c2c(C#N)cccc12`, the melting point was in the range of 153 to 156 °C.
As to `Cn1c(=O)c(=O)[nH]c2ccc3ccccc3c21`, the melting point lay within 294 to 295 °C.
As for `CC(C)c1ccc(COc2ccc(CC(=O)O)cc2Cl)cc1`, the melting point fell in the range of 146 to 148 °C.
As to `CCCn1c(=O)c(C(=O)OCC)c(O)c2cnc(SC)nc21`, the melting point lay within 130 to 133 °C.
In turn, `O=C(NC1CCCCNC1=O)c1cccnc1` (configuration not stated) showed a melting point of 177 to 178 °C.
`CCCOc1cc(CC)c(C(=O)OC)c(C(=O)O)c1` registered a melting point of 99 to 100 °C.
Consider `CCCOc1ccc(-c2ccc(=O)[nH]n2)cc1OC`, for which the melting point was 186 °C.
The result for `O=C(Cc1ccccc1)NCc1cccc2c1CN(C1CCC(=O)NC1=O)C2=O` (configuration not stated) reads 236 to 238 °C; that for `Cc1c(N2CC(F)[C@](C)(N)C2)c(F)cc2c(=O)c(C(=O)O)cn([C@@H]3C[C@@H]3F)c12` (some centres not stated), 215 to 217 °C.
The result for `O=c1[nH]c2ccc(S(=O)CCN3CCC(O)(Cc4ccccc4)CC3)cc2o1` (configuration not stated) reads 138 to 140 °C.
Turning to `CCNC(=O)c1sc(I)cc1[Si](C)(C)C`, the melting point lay in the range of 85 to 88 °C.
For `COC(=O)c1ccc2cc(CCCc3cc4ccc(C(=O)OC)cc4o3)oc2c1`, the melting point lay in the range of 100 to 101 °C.
As for `COc1ccc(CSc2nnc(-c3ccc4occc4c3)o2)cc1`, the melting point was in the range of 124 to 125 °C.
Molecule `Nc1nnc(-c2cc3c(Oc4ccc(Br)cc4)cncc3s2)o1` yielded a melting point of 270 to 273 °C.
Next, `CC(=O)NCCNC(=O)c1ccc(Br)o1`: 175 to 176 °C.
Turning to `CC(C)Cn1c(=O)n(C)c(=O)c2cc(Cc3cccc(F)c3)sc21`, the melting point was in the range of 76 to 78 °C.
The molecule `COCCNC(=S)n1nc(Oc2c(Cl)cc(C(F)(F)F)cc2Cl)cc1C` gave a melting point of 83 to 86 °C.
`CN[C@H]1CCN(c2c(-c3csc(C)n3)c(C)c(C#N)c3nc(C(=O)N(C)C)oc23)C1`: the melting point was in the range of 138 to 140 °C.
The result for `O=C(NC1=NN(c2ccc(C(=O)C(F)(F)F)cc2)C(c2ccccc2)C1)C(F)(F)F` (configuration not stated) reads 197 to 198 °C.
In turn, `Fc1cccc(F)c1CN[C@H]1CCCN[C@H]1c1ccccc1` (relative stereo) showed a melting point of more than 260 °C.
In turn, `O[C@@H](CNCCOc1ccc2sc(-c3ncon3)cc2c1)COc1ccccc1` gave a melting point of 101 to 102 °C.
The molecule `Cc1cc(NCC(C)C)c2[nH]ncc2n1` yielded a melting point of 162 to 164 °C.
The result for `CC1CCN(C(=O)Oc2ccc(Oc3ccc(Cl)cc3)cc2)CC1` reads 72 to 75 °C.

(Values after a melting point compilation (Tetko et al.; mined from patent text by program, amines drawn as free bases though some values may be those of a salt).)
